Measured values from the NIST ThermoML archive (doi:10.1016/j.fluid.2005.11.017).
Several values for one entry are separate records, joined by “and”; a condition that tells them apart may be missing. Equal values may be shown once. ± gives the expanded uncertainty stated by the source.

conditions: 313.15 K; Liquid

**Q.** With `CC(C)CO` [2-methyl-1-propanol] as the compound, how does the “vapor or sublimation pressure” value read?
**A.** 4.015 ± 0.056 kPa [middle of 4 runs]

**Q.** For `c1ccccc1` [benzene], which “vapor or sublimation pressure” value is on record?
**A.** 24.38 ± 0.18 kPa and 24.36 ± 0.18 kPa

**Q.** Which “vapor or sublimation pressure” value does the source give for `CC(C)OC(C)C` [diisopropyl ether] here?
**A.** 37.11 ± 0.27 kPa and 37.09 ± 0.27 kPa and 37.14 ± 0.27 kPa
